Some test systems named below: UACC-62; COLO 205; SK-MEL-28; RPMI-8226; A549; HCT-15; U-251; CCRF-CEM; TK-10; Malme-3M; IGROV-1; SF-539; SK-OV-3; 786-0; SN12C; RXF 393; MCF7; DU-145; T47D.
Holding throughout (assay): inhibition of tumour cell growth, NCI panel, 48 h

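The compound was tested at five concentrations on cells cultured in 96-well plates, with a 48-hour exposure period. At the GI50, growth is halved.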 Calls of active or inactive are those of the source. Cut-off read from the data, not from the text of the source: active = GI50 up to about 1.1 µM and inactive = higher. Where a SMILES comes first, the peptide text is derived from it. [ ]: non-standard residue; d: D form. 2Nal = N[CH](Cc1ccc2ccccc2c1)C(=O)O

Turning to `COc1ccc(C(=O)CC2=Nc3nnc(CCCCCCCc4nnc5n4C(=O)C(CC(=O)c4ccc(OC)cc4)=N5)n3C2=O)cc1`, the GI50 with UACC-62 was > 100 µM (inactive); with COLO 205, > 100 µM (inactive); in the assay with SK-MEL-28 it was > 100 µM (inactive); in the assay with RPMI-8226, > 100 µM (inactive); in the assay with A549 it was > 100 µM (inactive); with HCT-15, more than 100 µM. The GI50 with U-251, with CCRF-CEM, with TK-10, in the assay on Malme-3M, with IGROV-1 and in the assay with SF-539 was > 100 µM (inactive) in each case. Besides, the GI50 in the assay on SK-OV-3, with 786-0, in the assay with SN12C and in the assay on RXF 393 was > 100 µM (inactive) each time.
`CCOC(OC1=C(C#N)CCCC1)C(CC)[Se]c1ccccc1` (stereo not given): the GI50 with UACC-62 was 13.7 µM (inactive); with COLO 205, 17.5 µM (inactive); in the assay on SK-MEL-28 it was 23.6 µM (inactive); in the assay on RPMI-8226 it was 16.2 µM (inactive); in the assay on A549, 39.4 µM (inactive); in the assay with HCT-15 it was 16.2 µM. The GI50 in the assay with U-251 is 13 µM (inactive); with CCRF-CEM, 15.7 µM (inactive); in the assay with TK-10, > 100 µM (inactive); in the assay on Malme-3M, 31 µM (inactive); in the assay with IGROV-1, 20.7 µM (inactive); in the assay on SF-539, 14.3 µM (inactive). Besides, the GI50 was > 100 µM (inactive) in the assay on SK-OV-3, 17.4 µM (inactive) with 786-0, 16.3 µM (inactive) in the assay on SN12C and 15 µM (inactive) with RXF 393.
`OCC(CCc1ccccc1I)C1=CCC2(CC1)OCCO2` (stereo not given): the GI50 in the assay with UACC-62 was 16.4 µM (inactive); with COLO 205, 20.1 µM (inactive); in the assay with SK-MEL-28, 17.7 µM (inactive); in the assay with RPMI-8226, 53.6 µM (inactive); in the assay on A549, 19.8 µM (inactive); in the assay with HCT-15, 21.9 µM. Also, the GI50 in the assay on U-251 is 19.7 µM (inactive); in the assay with CCRF-CEM, 13.5 µM (inactive); in the assay on TK-10, 23.5 µM (inactive); with Malme-3M it was 17.8 µM (inactive); with IGROV-1, 16.7 µM (inactive); in the assay on MCF7 it was 23.3 µM (inactive). In addition, the GI50 in the assay with SF-539 is 17.6 µM (inactive); in the assay on SK-OV-3 it was 39 µM (inactive); in the assay with 786-0 it was 19.9 µM (inactive); with DU-145 it was 19.5 µM (inactive); in the assay with T47D, 17.7 µM (inactive); in the assay on RXF 393, 14.9 µM (inactive).
With `COC(=O)C1=CCC2c3[nH]c4ccccc4c3CCN2C1` (stereo not given), the GI50 was > 354 µM (inactive) in the assay on UACC-62; > 354 µM (inactive) in the assay with COLO 205; > 354 µM (inactive) in the assay on SK-MEL-28; > 354 µM (inactive) with RPMI-8226; > 354 µM (inactive) in the assay with A549; more than 354 µM in the assay on HCT-15. Besides, the GI50 in the assay with U-251, with CCRF-CEM, with TK-10, in the assay with Malme-3M, in the assay on IGROV-1 and in the assay with SF-539 was > 354 µM (inactive) each time. The GI50 with SK-OV-3, in the assay with 786-0, in the assay with SN12C and with RXF 393 was > 354 µM (inactive) each time.
On to `O=c1[nH]n(Cc2ccccc2Cl)c2ccc([N+](=O)[O-])cc12`, for which the GI50 with UACC-62 was 43.4 µM (inactive); in the assay with COLO 205 it was > 100 µM (inactive); in the assay on SK-MEL-28 it was 55.8 µM (inactive); in the assay on RPMI-8226 it was 45.1 µM (inactive); with A549 it was 37.8 µM (inactive); with HCT-15 it was 58.6 µM. The GI50 in the assay on U-251 was 75.9 µM (inactive); with CCRF-CEM, 45.2 µM (inactive); in the assay with TK-10, 55.6 µM (inactive); with Malme-3M it was 47.3 µM (inactive); with IGROV-1 it was 61.9 µM (inactive); in the assay on SF-539, 54.2 µM (inactive). Besides, the GI50 with 786-0 was 46.6 µM (inactive); in the assay on SN12C it was 54 µM (inactive); with DU-145 it was > 100 µM (inactive); with RXF 393, 23.3 µM (inactive).
Take `COC(CN1C=C(Sc2ccccc2)CC1)OC`: the GI50 in the assay with UACC-62 is 31.8 µM (inactive); with COLO 205 it was 22.6 µM (inactive); with SK-MEL-28, 31 µM (inactive); in the assay with RPMI-8226, 21.7 µM (inactive); with A549, 30.8 µM (inactive); in the assay on HCT-15 it was 37.7 µM. In addition, the GI50 in the assay on CCRF-CEM is 19.5 µM (inactive); in the assay on TK-10 it was 32.7 µM (inactive); in the assay with Malme-3M it was 35.9 µM (inactive); in the assay with IGROV-1 it was 53.2 µM (inactive); with SF-539, 26.4 µM (inactive); with SK-OV-3, 37 µM (inactive). Besides, the GI50 in the assay on 786-0 was 36.4 µM (inactive); in the assay with SN12C it was 33.9 µM (inactive); with RXF 393, 20.8 µM (inactive).
On to `CCc1cccc(C(C)C)c1NC(=O)C(=O)C1C(=O)NC(=O)NC1=O`, for which the GI50 is > 100 µM (inactive) in the assay on UACC-62; > 100 µM (inactive) in the assay with COLO 205; > 100 µM (inactive) in the assay on SK-MEL-28; > 100 µM (inactive) in the assay on RPMI-8226; > 100 µM (inactive) in the assay on A549; more than 100 µM in the assay on HCT-15. The GI50 with U-251, in the assay on CCRF-CEM, with TK-10, in the assay on Malme-3M, in the assay with IGROV-1 and in the assay with SF-539 was > 100 µM (inactive) throughout. Further, the GI50 with SK-OV-3, in the assay on 786-0, in the assay on SN12C and in the assay with RXF 393 was > 100 µM (inactive) each time.
On to `CCOC(OC1=C(C#N)CCC1)C(C)[Se]c1ccccc1` (stereo not given), for which the GI50 in the assay on UACC-62 was 18.5 µM (inactive); in the assay with COLO 205, 27.5 µM (inactive); with SK-MEL-28, 40.6 µM (inactive); with RPMI-8226, 23.3 µM (inactive); in the assay on A549 it was 67.8 µM (inactive); with HCT-15 it was 15.9 µM. The GI50 was 6.41 µM (inactive) in the assay with U-251; > 100 µM (inactive) with CCRF-CEM; > 100 µM (inactive) in the assay with TK-10; 12.7 µM (inactive) with Malme-3M; 25.8 µM (inactive) in the assay on IGROV-1; 21.6 µM (inactive) with SF-539. The GI50 in the assay on SK-OV-3 is > 100 µM (inactive); with 786-0, 14.4 µM (inactive); with SN12C, 14.7 µM (inactive); in the assay with RXF 393, 18 µM (inactive).
As to `O=C1NC(=O)[C@@H](OCC2CCCCC2)[C@@H]2OCC3OC(C(O)C3O)C12` (stereo not given in full), the GI50 in the assay on UACC-62 is > 100 µM (inactive); with COLO 205, > 100 µM (inactive); in the assay with SK-MEL-28, > 100 µM (inactive); with A549, > 100 µM (inactive); in the assay with HCT-15, more than 100 µM; with CCRF-CEM, > 100 µM (inactive). Besides, the GI50 in the assay on TK-10, with Malme-3M, in the assay on IGROV-1, in the assay on MCF7, in the assay on SF-539 and with SK-OV-3 was > 100 µM (inactive) in each case. The GI50 in the assay with 786-0, with SN12C, with DU-145, in the assay on T47D and with RXF 393 was > 100 µM (inactive) each time.
`COc1ccc(S(=O)(=O)Nc2ccc(-c3csc(N4C(=O)/C(=C/C=C\c5ccccc5)N=C4c4ccccc4)n3)cc2)cc1Cl`: the GI50 in the assay with UACC-62 was 19.4 µM (inactive); with COLO 205, 39.4 µM (inactive); in the assay with SK-MEL-28 it was 59.7 µM (inactive); in the assay with A549 it was 28.9 µM (inactive); with HCT-15, 21.8 µM; with U-251 it was 28.8 µM (inactive). Moreover, the GI50 was 20.1 µM (inactive) with CCRF-CEM; 38.5 µM (inactive) with TK-10; 20.2 µM (inactive) in the assay with Malme-3M; 19.9 µM (inactive) in the assay with IGROV-1; 32.4 µM (inactive) with MCF7; 36.6 µM (inactive) with SF-539. Further, the GI50 in the assay with SK-OV-3 is 65.3 µM (inactive); in the assay on 786-0, 31.3 µM (inactive); in the assay with SN12C, 33.2 µM (inactive); with DU-145, 31.8 µM (inactive); with T47D it was 19.5 µM (inactive); in the assay on RXF 393, 22.3 µM (inactive).
Turning to `CNC(=O)OCc1c(COC(=O)NC)c(-c2ccc(Cl)c(Cl)c2)n2c1SCC2`, the GI50 is 5.74 µM (inactive) with UACC-62; 9.82 µM (inactive) with COLO 205; 10.8 µM (inactive) in the assay with SK-MEL-28; 12.2 µM (inactive) in the assay on RPMI-8226; 23.2 µM (inactive) with A549; 13 µM in the assay with HCT-15. Besides, the GI50 in the assay with U-251 is 7.85 µM (inactive); in the assay on CCRF-CEM, 13.4 µM (inactive); in the assay on TK-10 it was 2.86 µM (inactive); in the assay with Malme-3M it was 22.7 µM (inactive); in the assay on MCF7, 13 µM (inactive); with SF-539, 15.5 µM (inactive). For the same compound, the GI50 was 6.21 µM (inactive) in the assay on SK-OV-3; 16.7 µM (inactive) with 786-0; 13 µM (inactive) with SN12C; 17.2 µM (inactive) in the assay on DU-145; 8.81 µM (inactive) in the assay with T47D; 3.31 µM (inactive) in the assay on RXF 393.
On to `CC(NC(=O)C(N)Cc1ccccc1)C(=O)NC(Cc1ccc(O)cc1)C(=O)NC(Cc1c[nH]c2ccccc12)C(=O)NC(CCCCN)C(=O)NC(C(=O)NC(C)C(=O)NC(Cc1ccc2ccccc2c1)C(N)=O)C(C)C` (stereo not given) (H-FAYWKVA[2Nal]-NH2; configuration not given here), for which the GI50 in the assay with UACC-62 was > 12.5 µM (inactive); in the assay with COLO 205, > 12.5 µM (inactive); in the assay with SK-MEL-28, > 12.5 µM (inactive); in the assay on RPMI-8226, > 12.5 µM (inactive); in the assay with A549, > 12.5 µM (inactive); in the assay on HCT-15 it was more than 12.5 µM. Besides, the GI50 in the assay with U-251, in the assay on CCRF-CEM, in the assay with Malme-3M, in the assay with IGROV-1, in the assay on MCF7 and with SF-539 was > 12.5 µM (inactive) each time. Further, the GI50 in the assay on SK-OV-3, in the assay with 786-0, with SN12C, in the assay on DU-145, in the assay with T47D and in the assay with RXF 393 was > 12.5 µM (inactive) throughout.

For the origin of these results see ChEMBL document CHEMBL1201862, “PubChem BioAssay data set” (2004).
